Laboratory results: the SangsterLogP compilation

SMILES | logP
CCCc1nnc(-c2ccc(N)cc2)s1 | 2.53
Nc1ccc(-c2nnc(Cc3ccccc3)o2)cc1 | 2.82
CCC(=O)c1ccc(N)cc1 | 1.65
Nc1ccc(-c2nc(Cc3ccccc3)no2)cc1 | 3.24
CC(C)c1nnc(-c2ccc(N)cc2)o1 | 2.23
Nc1ccc(-c2nc(-c3ccccc3)no2)cc1 | 3.48
CC(C)(C)c1nnc(-c2ccc(N)cc2)o1 | 2.53
CCc1nsc(-c2ccc(N)cc2)n1 | 2.39
Nc1ccc(-c2nnc(-c3ccccc3)o2)cc1 | 2.91
CCCCc1nnc(-c2ccc(N)cc2)o1 | 2.66
CCCc1nnc(-c2ccc(N)cc2)o1 | 2.27
CCCCC(=O)c1ccc(N)cc1 | 2.48
CCc1nnc(-c2ccc(N)cc2)o1 | 1.92
CCCc1noc(-c2ccc(N)cc2)n1 | 2.61

More lines, now with the values ahead:

logP | SMILES
2.57 | CC(C)c1noc(-c2ccc(N)cc2)n1
2.22 | CCc1noc(-c2ccc(N)cc2)n1
1.89 | Cc1noc(-c2ccc(N)cc2)n1
1.63 | Cc1nnc(-c2ccc(N)cc2)o1
2.13 | CCc1nc(-c2ccc(N)cc2)no1
1.71 | Cc1nc(-c2ccc(N)cc2)no1
2.54 | CCCc1nc(-c2ccc(N)cc2)no1
